These results are taken from patent US4900749A, “Isoprenoidamine compounds useful as antiulcer agents” (Shionogi & Co., Ltd., priority 1985, dated 1990).

One test relates to lesion formation. The test can be described thus: inhibition of 60% ethanol/150 mM hydrochloric acid-induced stomach lesion formation (Experiment 1). In kind it is in vivo, Male SD rats. The note with it: Rattus norvegicus, 1 h. Here is the method: Male SD rats, weighing 200-300 g, were allowed to fast for 24 hours. One milliliter of 60% ethanol (v/v) in 150 mM hydrochloric acid was given orally 1 hour after oral or intraperitoneal administration of test compound as a suspension in 5% gum arabic, and the animals were killed with an overdose of ether 1 hour later. The stomachs were removed and opened along the greater curvature. The total length (mm) of each lesion was measured for use as the lesion index and inhibition (%) of lesion formation by the test compound was calculated by comparing with that of 5% gum arabic as control.
Geranylgeranylacetone (hereinafter abbreviated as GGA) was employed as a reference compound.

The subject of the next test is acid secretion. The test can be described thus: inhibition of histamine-stimulated gastric acid secretion in perfused stomach (Experiment 2). The note with it: intraduodenal, during 90 minutes after administration, histamine dihydrochloride 3 mg/kg/hr. In kind it is in vivo, Male Jcl SD rats. The procedure:
Male Jcl SD rats (body weight; about 300 g) were fast for 24 hours and anesthetized by urethane. Cannula was put into the trachea and into a jugular vein. After midline laparotomy, perfusion cannulae were introduced into the stomach through the pylorus and the esophagus. The animal was perfused with saline (1 ml/min) at 37° C. through the esophagus cannula. Perfusate was collected every 15 minutes through the pylorus cannula and titrated with 0.01N sodium hydroxide to measure acid secretion. Histamine dihydrochloride (3 mg/kg/hr) was infused through the jugular vein cannula and the test compound was administered intraduodenaly 90 minutes later. Acid output in perfusate every 15 minutes was measured in the same manner as described above. The rate of maximum inhibition (%) of acid secretion was calculated during 90 minutes after administration of the test compound compared with the acid output just before administration of the test compound.

Where [1] appears, read: ip, Intraperitoneal administration.

For the compound `CC(C)=CCCC(C)=CCCC(C)=CCCC(C)=CCNC(=O)N1CCN(Cc2ccc3c(c2)OCO3)CC1` [Compound I-62], the inhibition in vivo (usually the drop in the measured response relative to a control, in per cent) at 20 mg/kg in the test with lesion formation (setting [1]) is 46.1%.

In the test on lesion formation (setting [1]), `CC(C)=CCCC(C)=CCCC(C)=CCCC(C)=CCNC(=O)c1ccco1` [Compound I-12] displayed an inhibition in vivo at 10 mg/kg of 39.4%.

As to `CC(C)=CCCC(C)=CCCC(C)=CCCC(C)=CCNC(=O)c1cnccn1` [Compound I-28], the inhibition in vivo at 20 mg/kg with lesion formation (setting [1]) came to 80.4%.

For the compound `CC(C)=CCCC(C)=CCCC(C)=CCCC(C)=CCNC(=O)N1CCOCC1` [Compound I-55, 1-[N-(3,7,11,15-Tetramethyl-2,6,10,14-hexadecatetraenyl)carbamoyl]morpholine], the “Inhibition (%): rate of maximum inhibition of acid secretion” value is 51.1% in the test on acid secretion (20 mg/kg) and 77.7% in the test on acid secretion (50 mg/kg). Besides, the inhibition in vivo at 10 mg/kg in the test on lesion formation (Oral administration) amounted to 22.2%; in the test with lesion formation (setting [1]) it was 76.7%.

For the compound `CC(C)=CCCC(C)=CCCC(C)=CCCC(C)=CCNC(=O)c1ccccn1` [Compound I-20], the inhibition in vivo at 20 mg/kg is 24.2% with lesion formation (Oral administration) and 83.1% in the test with lesion formation (setting [1]).

Regarding `CC(C)=CCCC(C)=CCCC(C)=CCCC(C)=CCNC(=O)c1ccccc1` [Compound I-9], in the test on lesion formation (setting [1]), testing at 20 mg/kg gave an inhibition in vivo of 64.2%.

Consider `CC(C)=CCCC(C)=CCCC(C)=CCCC(C)=CCNC(=O)c1cccnc1` [Compound I-21], for which the inhibition in vivo at 20 mg/kg in the test with lesion formation (Oral administration) is 64.5%; in the test on lesion formation (setting [1]), 99%.

`CC(C)=CCCC(C)=CCCC(C)=CCCC(C)=CCNC(=O)Cc1cccnc1` [Compound I-30]: the “Inhibition (%): rate of maximum inhibition of acid secretion” value with acid secretion (20 mg/kg) amounted to 57.4%; in the test on acid secretion (50 mg/kg), 99.5%. Also, the inhibition in vivo at 20 mg/kg amounted to 85.1% in the test with lesion formation (Oral administration) and 93.6% with lesion formation (setting [1]).

Regarding `CC(C)=CCCC(C)=CCCC(C)=CCCC(C)=CCNC(=O)NCCCN1CCOCC1` [Compound I-65], testing at 20 mg/kg in the test with lesion formation (setting [1]) gave an inhibition in vivo of 35.5%.

`CC(=O)CCC=C(C)CCC=C(C)CCC=C(C)CCC=C(C)C` [GGA, Geranylgeranylacetone, reference compound]: the inhibition in vivo at 20 mg/kg with lesion formation (Oral administration) was determined as 37.7%. The compound further came in with an inhibition in vivo at 50 mg/kg with lesion formation (ip, Intraperitoneal administration, 50 mg/kg) of 81%.

Take `CC(C)=CCCC(C)=CCCC(C)=CCCC(C)=CCNC(=O)Cc1ccccc1` [Compound I-13]: at 20 mg/kg the inhibition in vivo in the test with lesion formation (setting [1]) was 65.3%.

In the test on lesion formation (setting [1]), `CC(C)=CCCC(C)=CCCC(C)=CCCC(C)=CCNC(=O)Cc1c[nH]cn1` [Compound I-31] had an inhibition in vivo at 20 mg/kg of 91%.

With `CC(C)=CCCC(C)=CCCC(C)=CCCC(C)=CCNC(=O)NCc1cccnc1` [Compound I-71], the inhibition in vivo at 20 mg/kg in the test on lesion formation (Oral administration) is 44.2%; in the test on lesion formation (setting [1]), 68.5%.

Take `CC(C)=CCCC(C)=CCCC(C)=CCCC(C)=CCNC(=O)N1CCN(C)CC1` [Compound I-59]: in the test on lesion formation (setting [1]), the inhibition in vivo at 20 mg/kg was 53.3%.

Regarding `CC(C)=CCCC(C)=CCCC(C)=CCCC(C)=CCNC(=O)c1ccc([N+](=O)[O-])cc1` [Compound I-18], in the test with lesion formation (setting [1]), the inhibition in vivo at 20 mg/kg was determined as 75.1%.

In the test with lesion formation (Oral administration), `CC(=O)NCC=C(C)CCC=C(C)CCC=C(C)CCC=C(C)C` [Compound I-2, N-(3,7,11,15-Tetramethyl-2,6,10,14-hexadecatetraenyl)acetamide] had an inhibition in vivo at 20 mg/kg of 46.6%. The inhibition in vivo at 10 mg/kg in the test on lesion formation (setting [1]) is 71.7%.

Compound `CC(C)=CCCC(C)=CCCC(C)=CCCC(C)=CCNC(=O)c1cccs1` [Compound I-24] came in with an inhibition in vivo at 20 mg/kg with lesion formation (Oral administration) of 11.8%. The inhibition in vivo at 10 mg/kg with lesion formation (setting [1]) was determined as 62.1%.

As to `CC(C)=CCCC(C)=CCCC(C)=CCCC(C)=CCNC(=O)N(C)C` [Compound I-81, N,N-Dimethyl-N'-(3,7,11,15-tetramethyl-2,6,10,14-hexadecatetraenyl)urea], the inhibition in vivo at 20 mg/kg in the test on lesion formation (Oral administration) turned out to be 23.9%; in the test on lesion formation (setting [1]), 78.2%.

`CC(C)=CCCC(C)=CCCC(C)=CCCC(C)=CCNC(=O)c1ccncc1` [Compound I-22, N-(3,7,11,15-Tetramethyl-2,6,10,14 hexadecatetraenyl)isonicotinamide]: the inhibition in vivo at 20 mg/kg came out at 86.1% in the test with lesion formation (Oral administration) and 85.6% with lesion formation (setting [1]).

Regarding `COCC(=O)NCC=C(C)CCC=C(C)CCC=C(C)CCC=C(C)C` [Compound I-4], the results for the inhibition in vivo at 20 mg/kg with lesion formation (Oral administration) and in the test with lesion formation (setting [1]) were 29.3% and 88.4%, respectively.

`CC(C)=CCCC(C)=CCCC(C)=CCCC(C)=CCNC(=O)Nc1ccccc1` [Compound I-82]: the inhibition in vivo at 20 mg/kg with lesion formation (setting [1]) was 62.7%.

As for `CC(C)=CCCC(C)=CCCC(C)=CCCC(C)=CCNC(=O)N1CCCCC1` [Compound I-56], the inhibition in vivo at 20 mg/kg in the test on lesion formation (setting [1]) was determined as 79.4%.

`CC(C)=CCCC(C)=CCCC(C)=CCCC(C)=CCNC(=O)c1ccc[nH]1` [Compound I-26] yielded an inhibition in vivo at 20 mg/kg in the test with lesion formation (Oral administration) of 9.6%. In the test with lesion formation (setting [1]), this compound displayed an inhibition in vivo at 10 mg/kg of 59.1%.

In the case of `CC(C)=CCCC(C)=CCCC(C)=CCCC(C)=CCNC(=O)CC#N` [Compound I-36], the inhibition in vivo at 20 mg/kg in the test with lesion formation (Oral administration) was 56.4%; with lesion formation (setting [1]) it was 72.2%.

`CC(C)=CCCC(C)=CCCC(C)=CCCC(C)=CCNC(N)=O` [Compound I-57]: in the test on lesion formation (Oral administration), the inhibition in vivo at 10 mg/kg was 36.2%. Also, the inhibition in vivo at 20 mg/kg in the test on lesion formation (setting [1]) is 84%.

Take `CC(C)=CCCC(C)=CCCC(C)=CCCC(C)=CCNC(=O)Cc1ccccn1` [Compound I-29]: in the test with lesion formation (setting [1]), the inhibition in vivo at 10 mg/kg worked out at 64.3%.
